32 molecules from patent US20230135152A1 (ACURASTEM INCORPORATED, priority 2020, published 2023) can be followed below.

Assay [1] concerns the target T1, PIKFYVE (Homo sapiens, UniProt Q9Y2I7). Nature of the assay: Cell-based Pikfyve inhibition activity assay (EEA1 staining, mean vesicle size in BJ fibroblast cells). As to conditions: Table 4, 4 hours treatment, 3 μM Apilimod = 100% inhibition. The gist of the method:
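BJ fibroblasts treated 4 h at 37° C with eleven 3-fold doses (0.03-3000 nM), then fixed and stained for EEA1. Confocal images (20×, 16 tiles/well) analysed for mean vesicle size. Normalised to 0.5% DMSO (0%) and 3 μM apilimod (100%); dose-response fitted with variable slope.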

Assay [2] has as its target T1, PIKFYVE. Nature of the assay: PIKFYVE assay (luciferase ADP-Glo kinase assay, Promega). The class given is biochemical. The essentials: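 Kinase activity measured with a luciferase-based ADP-Glo read-out, which quantifies ADP formed by the enzyme.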
On the technique in general: ADP-Glo first removes unused ATP, then detects ADP through luciferase.

T1 sequence (Q9Y2I7 whole entry): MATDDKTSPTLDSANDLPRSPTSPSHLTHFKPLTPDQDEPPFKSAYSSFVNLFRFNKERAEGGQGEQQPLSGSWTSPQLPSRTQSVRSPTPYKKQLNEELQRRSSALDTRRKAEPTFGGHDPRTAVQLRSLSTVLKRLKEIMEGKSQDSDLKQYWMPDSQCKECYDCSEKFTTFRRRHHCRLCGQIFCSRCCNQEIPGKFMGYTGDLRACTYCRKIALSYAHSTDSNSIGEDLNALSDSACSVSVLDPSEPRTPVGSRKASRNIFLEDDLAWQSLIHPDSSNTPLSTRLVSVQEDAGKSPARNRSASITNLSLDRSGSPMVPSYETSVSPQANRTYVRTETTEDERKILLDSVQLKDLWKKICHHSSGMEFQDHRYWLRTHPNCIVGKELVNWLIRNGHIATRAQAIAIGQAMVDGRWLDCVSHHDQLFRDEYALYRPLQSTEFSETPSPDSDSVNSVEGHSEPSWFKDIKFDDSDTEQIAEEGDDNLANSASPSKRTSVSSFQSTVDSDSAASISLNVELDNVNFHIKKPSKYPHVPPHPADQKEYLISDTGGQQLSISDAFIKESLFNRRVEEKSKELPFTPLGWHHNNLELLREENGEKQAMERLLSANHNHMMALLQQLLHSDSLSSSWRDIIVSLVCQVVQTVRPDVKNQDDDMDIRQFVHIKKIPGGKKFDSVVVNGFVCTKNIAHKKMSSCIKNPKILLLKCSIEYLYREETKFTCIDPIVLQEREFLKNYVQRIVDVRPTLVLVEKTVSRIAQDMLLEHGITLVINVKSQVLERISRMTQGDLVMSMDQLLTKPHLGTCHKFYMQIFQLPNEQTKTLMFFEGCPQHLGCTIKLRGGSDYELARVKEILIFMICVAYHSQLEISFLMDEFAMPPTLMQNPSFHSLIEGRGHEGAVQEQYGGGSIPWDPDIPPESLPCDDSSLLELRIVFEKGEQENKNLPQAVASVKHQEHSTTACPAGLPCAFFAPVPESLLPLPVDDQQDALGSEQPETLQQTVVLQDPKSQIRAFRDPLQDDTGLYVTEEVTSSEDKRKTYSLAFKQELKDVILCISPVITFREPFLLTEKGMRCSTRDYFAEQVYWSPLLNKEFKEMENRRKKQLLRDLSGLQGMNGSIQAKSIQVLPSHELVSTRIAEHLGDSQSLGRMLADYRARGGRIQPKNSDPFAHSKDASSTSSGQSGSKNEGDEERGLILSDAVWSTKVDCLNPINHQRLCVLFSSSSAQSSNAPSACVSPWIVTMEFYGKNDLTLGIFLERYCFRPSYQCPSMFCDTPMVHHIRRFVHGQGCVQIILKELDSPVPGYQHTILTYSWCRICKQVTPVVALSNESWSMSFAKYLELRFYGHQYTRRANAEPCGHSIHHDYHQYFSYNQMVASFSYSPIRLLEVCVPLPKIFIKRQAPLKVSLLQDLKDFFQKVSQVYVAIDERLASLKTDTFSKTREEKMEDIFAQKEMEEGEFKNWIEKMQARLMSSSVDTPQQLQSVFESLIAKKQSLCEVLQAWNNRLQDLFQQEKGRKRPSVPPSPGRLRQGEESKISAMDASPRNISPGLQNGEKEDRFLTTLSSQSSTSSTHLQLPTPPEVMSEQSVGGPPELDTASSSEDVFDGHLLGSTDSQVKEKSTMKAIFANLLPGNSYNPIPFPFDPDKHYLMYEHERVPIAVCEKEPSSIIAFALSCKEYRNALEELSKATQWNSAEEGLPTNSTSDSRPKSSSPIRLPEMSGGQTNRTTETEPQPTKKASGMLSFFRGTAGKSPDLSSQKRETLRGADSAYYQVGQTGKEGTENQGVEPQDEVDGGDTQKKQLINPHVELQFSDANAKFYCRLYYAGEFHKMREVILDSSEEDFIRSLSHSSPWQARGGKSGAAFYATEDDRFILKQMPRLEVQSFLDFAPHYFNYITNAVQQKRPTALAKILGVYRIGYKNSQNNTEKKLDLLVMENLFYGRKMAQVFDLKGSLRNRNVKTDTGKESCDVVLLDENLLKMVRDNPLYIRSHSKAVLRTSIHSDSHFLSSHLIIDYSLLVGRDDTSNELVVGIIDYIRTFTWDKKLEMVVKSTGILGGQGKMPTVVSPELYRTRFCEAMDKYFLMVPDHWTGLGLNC

As a reminder, the EC50 is the concentration giving half of the maximal effect. Low readings indicate an effect from little substance, high ones a need for much substance. As usually defined, the IC50 is the concentration at which inhibition is half-maximal. `c1ccc(-c2ccn(-c3cc(N4CCOCC4)nc(OCc4cccnn4)n3)n2)cc1` [Compound 114, 4-(6-(3-phenyl-1H-pyrazol-1-yl)-2-(pyridazin-3-ylmethoxy)pyrimidin-4-yl)morpholine] registered an EC50 at PIKFYVE [1] of 100 to 500 nM. Moreover, the concentration for half-maximal inhibition (IC50) at PIKFYVE [2] (Table 3) fell in the range of 3 to 10 nM.

On PIKFYVE [1], `Cc1cccc(-c2ccn(-c3cc(N4CCOCC4)nc([C@@H](CO)OC(F)F)n3)n2)c1` (single isomer, unassigned) [Compound 309] had an EC50 of 500 to 5000 nM. This molecule also had an IC50 at PIKFYVE [2] (Table 3) of 3 to 10 nM.

Consider `Cc1cccc(-c2ccn(-c3cc(N4CCOCC4)nc([C@H]4C[C@H](O)CO4)n3)n2)c1` [Compound 332, (3S,5R)-5-(4-morpholino-6-(3-(m-tolyl)-1H-pyrazol-1-yl)pyrimidin-2-yl)tetrahydrofuran-3-ol], for which the EC50 at PIKFYVE [1] lay within 500 to 5000 nM. Also, the IC50 on PIKFYVE [2] (Table 3) lay in the range of 3 to 10 nM.

The molecule `COC(C)(CO)c1nc(N2CCOCC2)cc(-n2ccc(-c3cccc(C)c3)n2)n1` (stereo not shown) [Compound 227, 2-methoxy-2-(4-morpholino-6-(3-(m-tolyl)-1H-pyrazol-1-yl)pyrimidin-2-yl)propan-1-ol] yielded an EC50 at PIKFYVE [1] of 100 to 500 nM. The molecule also displayed an IC50 at PIKFYVE [2] (Table 3) of less than 3 nM.

`Cc1cccc(-c2ccn(-c3cc(N4CCOCC4)nc(C#CC(O)c4cnn(C)c4)n3)n2)c1` (stereo not shown) [Compound 230, 1-(1-methyl-1H-pyrazol-4-yl)-3-(4-morpholino-6-(3-(m-tolyl)-1H-pyrazol-1-yl)pyrimidin-2-yl)prop-2-yn-1-ol] displayed an EC50 on PIKFYVE [1] of 20 to 100 nM. This molecule also displayed an IC50 against PIKFYVE [2] (Table 3) of less than 3 nM.

On PIKFYVE [1], `CO[C@@H](CO)c1nc(N2CCO[C@@H](C)C2)cc(-n2ccc(-c3cccc(C)c3)n2)n1` (single isomer, unassigned) [Compound 306] returned a 50% effective concentration (EC50) greater than 5000 nM. Besides, the IC50 on PIKFYVE [2] (Table 3) lay within 100 to 5000 nM.

Molecule `CO[C@H](CO)c1nc(N2CCOCC2)cc(-n2ccc(-c3c[nH]c4ncccc34)n2)n1` [Compound 292, (S)-2-(4-(3-(1H-pyrrolo[2,3-b]pyridin-3-yl)-1H-pyrazol-1-yl)-6-morpholinopyrimidin-2-yl)-2-methoxyethan-1-ol] showed an EC50 at PIKFYVE [1] of 20 to 100 nM. At PIKFYVE [2] (Table 3), this molecule gave a 50% inhibitory concentration (IC50) of 10 to 100 nM.

As to `COC(C)(CO)c1nc(N2CCOCC2)cc(-n2ccc(-c3cccc(C)c3)n2)n1` (stereo not shown) [Compound 226, 2-methoxy-2-(4-morpholino-6-(3-(m-tolyl)-1H-pyrazol-1-yl)pyrimidin-2-yl)propan-1-ol], the EC50 at PIKFYVE [1] lay within 500 to 5000 nM. In addition, the IC50 against PIKFYVE [2] (Table 3) is 3 to 10 nM.

On to `Cc1cccc(-c2ccn(-c3cc(N4CCOCC4)nc(OCCc4sc(C)nc4C)n3)n2)c1` [Compound 98, 4-(2-(2-(2,4-dimethylthiazol-5-yl)ethoxy)-6-(3-(m-tolyl)-1H-pyrazol-1-yl)pyrimidin-4-yl)morpholine], for which, on PIKFYVE [1], the EC50 was less than 20 nM. For the same molecule, the IC50 on PIKFYVE [2] (Table 3) lay within 3 to 10 nM.

As for `Cn1cc(CCOc2nc(N3CCOCC3)cc(-n3ccc(OCc4ccccc4)n3)n2)cn1` [Compound 62, 4-(6-(3-(benzyloxy)-1H-pyrazol-1-yl)-2-(2-(1-methyl-1H-pyrazol-4-yl)ethoxy)pyrimidin-4-yl)morpholine], at PIKFYVE [1], the EC50 is 20 to 100 nM. For the same molecule, the IC50 against PIKFYVE [2] (Table 2) is less than 5 nM.

On to `COCc1cccc(-c2ccn(-c3cc(N4CCOCC4)nc([C@@H](CO)OC)n3)n2)c1` [Compound 276, (S)-2-methoxy-2-(4-(3-(3-(methoxymethyl)phenyl)-1H-pyrazol-1-yl)-6-morpholinopyrimidin-2-yl)ethan-1-ol], for which the EC50 on PIKFYVE [1] was 100 to 500 nM. On PIKFYVE [2] (Table 3), this molecule registered an IC50 of 3 to 10 nM.

For `CO[C@@H](CO)c1nc(N2CCOCC2)cc(-n2nc(-c3ccccc3)cc2C)n1` [Compound 204, (R)-2-methoxy-2-(4-(5-methyl-3-phenyl-1H-pyrazol-1-yl)-6-morpholinopyrimidin-2-yl)ethan-1-ol], the EC50 at PIKFYVE [1] was in the range of 500 to 5000 nM. Moreover, at PIKFYVE [2] (Table 3), the half-inhibitory concentration (IC50) fell in the range of 10 to 100 nM.

Regarding `Cc1cccc(-c2ccn(-c3cc(N4CCOCC4)nc(OCc4cn[nH]c4)n3)n2)c1` [Compound 120, 4-(2-((1H-pyrazol-4-yl)methoxy)-6-(3-(m-tolyl)-1H-pyrazol-1-yl)pyrimidin-4-yl)morpholine], on PIKFYVE [1], the EC50 is 100 to 500 nM. The IC50 against PIKFYVE [2] (Table 3) lay in the range of 10 to 100 nM.

`Cn1cc(CCOc2nc(N3CCOCC3)cc(-n3ccc(-c4ccccn4)n3)n2)cn1` [Compound 194, 4-(2-(2-(1-methyl-1H-pyrazol-4-yl)ethoxy)-6-(3-(pyridin-2-yl)-1H-pyrazol-1-yl)pyrimidin-4-yl)morpholine] had a half-maximal effective concentration (EC50) at PIKFYVE [1] of 100 to 500 nM. Besides, the IC50 at PIKFYVE [2] (Table 3) fell in the range of 3 to 10 nM.

As for `CO[C@@H](CO)c1nc(N2CCOCC2)cc(-n2ccc(-c3c[nH]c4ncccc34)n2)n1` [Compound 293, (R)-2-(4-(3-(1H-pyrrolo[2,3-b]pyridin-3-yl)-1H-pyrazol-1-yl)-6-morpholinopyrimidin-2-yl)-2-methoxyethan-1-ol], on PIKFYVE [1], the EC50 was 100 to 500 nM. Also, at PIKFYVE [2] (Table 3), the IC50 lay in the range of 10 to 100 nM.

For the molecule `CCCc1ccn(-c2cc(N3CCOCC3)nc(OCCc3cnn(C)c3)n2)n1` [Compound 124, 4-(2-(2-(1-methyl-1H-pyrazol-4-yl)ethoxy)-6-(3-propyl-1H-pyrazol-1-yl)pyrimidin-4-yl)morpholine], the EC50 on PIKFYVE [1] is greater than 5000 nM. At PIKFYVE [2] (Table 3), this molecule displayed a half-maximal inhibitory concentration (IC50) greater than 5000 nM.

The molecule `Cc1cccc(-c2ccn(-c3cc(N4CCOCC4)nc(OCC(c4ccccc4)N(C)C)n3)n2)c1` (stereo not shown) [Compound 111, N,N-dimethyl-2-((4-morpholino-6-(3-(m-tolyl)-1H-pyrazol-1-yl)pyrimidin-2-yl)oxy)-1-phenylethan-1-amine] displayed an EC50 on PIKFYVE [1] greater than 5000 nM. In addition, on PIKFYVE [2] (Table 3), the IC50 lay in the range of 3 to 10 nM.

`COCc1cccc(-c2ccn(-c3cc(N4CCOCC4)nc([C@H](CO)OC)n3)n2)c1` [Compound 277, (R)-2-methoxy-2-(4-(3-(3-(methoxymethyl)phenyl)-1H-pyrazol-1-yl)-6-morpholinopyrimidin-2-yl)ethan-1-ol] displayed an EC50 on PIKFYVE [1] of 100 to 500 nM. Besides, the IC50 against PIKFYVE [2] (Table 3) was in the range of 3 to 10 nM.

In turn, `CO[C@@H](CO)c1nc(N2CCOCC2)cc(-n2ccc(-c3c[nH]c4ccccc34)n2)n1` (single isomer, unassigned) [Compound 319] gave an EC50 at PIKFYVE [1] of less than 20 nM. The half-maximal inhibitory concentration (IC50) at PIKFYVE [2] (Table 3) was less than 3 nM.

`COc1ccc(CCOc2nc(N3CCOCC3)cc(-n3ccc(-c4cccc(C)c4)n3)n2)cc1OC` [Compound 105, 4-(2-(3,4-dimethoxy-phenethoxy)-6-(3-(m-tolyl)-1H-pyrazol-1-yl)pyrimidin-4-yl)morpholine] showed an EC50 on PIKFYVE [1] of less than 20 nM. The IC50 at PIKFYVE [2] (Table 3) was less than 3 nM.

In turn, `Cc1cccc(-c2ccn(-c3cc(N4CCOCC4)nc(OCCc4cnn(C)c4)n3)n2)c1` [Compound 56, 4-(2-(2-(1-methyl-1H-pyrazol-4-yl)ethoxy)-6-(3-(m-tolyl)-1H-pyrazol-1-yl)pyrimidin-4-yl)morpholine] showed an EC50 at PIKFYVE [1] of less than 20 nM. Besides, the IC50 on PIKFYVE [2] (Table 2) is less than 5 nM.

At PIKFYVE [1], `Cc1cccc(-c2ccn(-c3cc(N4CCOCC4)nc(OCCc4cn[nH]c4)n3)n2)c1` [Compound 214, 4-(2-(2-(1H-pyrazol-4-yl)ethoxy)-6-(3-(m-tolyl)-1H-pyrazol-1-yl)pyrimidin-4-yl)morpholine] registered a 50% effective concentration (EC50) of less than 20 nM. The molecule further displayed an IC50 at PIKFYVE [2] (Table 3) of less than 3 nM.

On PIKFYVE [1], `Cc1cccc(-c2ccn(-c3cc(N4CCOCC4)nc([C@H](CO)OC(F)F)n3)n2)c1` (single isomer, unassigned) [Compound 310] registered an EC50 of 500 to 5000 nM. The molecule further displayed an IC50 at PIKFYVE [2] (Table 3) of 10 to 100 nM.

In the case of `COc1nc(N2CCOCC2)c(C)c(-n2ccc(-c3cccc(C)c3)n2)n1` [Compound 83, 4-(2-methoxy-5-methyl-6-(3-(m-tolyl)-1H-pyrazol-1-yl)pyrimidin-4-yl)morpholine], the EC50 on PIKFYVE [1] is greater than 5000 nM. The same molecule showed an IC50 against PIKFYVE [2] (Table 2) of 101 to 1000 nM.

Molecule `COc1cc(N2CCOCC2)nc(-n2ccc(-c3cccc(C)c3)n2)n1` [Compound 87, 4-(6-methoxy-2-(3-(m-tolyl)-1H-pyrazol-1-yl)pyrimidin-4-yl)morpholine] returned an EC50 on PIKFYVE [1] of 100 to 500 nM. This molecule also returned an IC50 against PIKFYVE [2] (Table 2) of 101 to 1000 nM.

`Cc1cc(-c2cccc3c2OCCN3)nn1-c1cc(N2CCOCC2)nc(OCCc2cnn(C)c2)n1` [Compound 245, 8-(5-methyl-1-(2-(2-(1-methyl-1H-pyrazol-4-yl)ethoxy)-6-morpholinopyrimidin-4-yl)-1H-pyrazol-3-yl)-3,4-dihydro-2H-benzo[b][1,4]oxazine] had an EC50 on PIKFYVE [1] greater than 5000 nM. Besides, the IC50 at PIKFYVE [2] (Table 3) is 10 to 100 nM.

For `Cc1cccc(-c2ccn(-c3cc(N4CCOCC4)nc(C(F)(F)F)n3)n2)c1` [Compound 82], the EC50 on PIKFYVE [1] lay within 500 to 5000 nM. The same molecule yielded an IC50 at PIKFYVE [2] (Table 2) of 5 to 100 nM.

Molecule `Cc1cccc(-c2ccn(-c3cc(N4CCOCC4)ncn3)n2)c1` [Compound 60, 4-(6-(3-(m-tolyl)-1H-pyrazol-1-yl)pyrimidin-4-yl)morpholine] registered an EC50 at PIKFYVE [1] of 500 to 5000 nM. The same molecule yielded an IC50 on PIKFYVE [2] (Table 2) of 101 to 1000 nM.

Consider `Cc1cccc(-c2ccn(-c3cc(N4CCOCC4)nc(NC(=O)CCc4cnn(C)c4)n3)n2)c1` [Compound 187], for which, on PIKFYVE [1], the half-maximal effective concentration (EC50) was in the range of 20 to 100 nM. At PIKFYVE [2] (Table 3), this molecule gave an IC50 of less than 3 nM.

As for `COC(CO)(c1ccccc1)c1nc(N2CCOCC2)cc(-n2ccc(-c3cccc(C)c3)n2)n1` (stereo not shown) [Compound 229, 2-methoxy-2-(4-morpholino-6-(3-(m-tolyl)-1H-pyrazol-1-yl)pyrimidin-2-yl)-2-phenylethan-1-ol], the EC50 on PIKFYVE [1] was in the range of 100 to 500 nM. Also, on PIKFYVE [2] (Table 3), the IC50 is 3 to 10 nM.

`CCc1cc(-c2ccccc2)nn1-c1cc(N2CCOCC2)nc(OCCc2cnn(C)c2)n1` [Compound 218, 4-(6-(5-ethyl-3-phenyl-1H-pyrazol-1-yl)-2-(2-(1-methyl-1H-pyrazol-4-yl)ethoxy)pyrimidin-4-yl)morpholine]: the EC50 at PIKFYVE [1] was in the range of 20 to 100 nM. On PIKFYVE [2] (Table 3), this molecule came in with an IC50 of less than 3 nM.

In turn, `Cc1cccc(-c2ccn(-c3cc(N4CCOCC4)nc(N(C)C)n3)n2)c1` [Compound 107, N,N-dimethyl-4-morpholino-6-(3-(m-tolyl)-1H-pyrazol-1-yl)pyrimidin-2-amine] had an EC50 at PIKFYVE [1] of 500 to 5000 nM. The 50% inhibitory concentration (IC50) on PIKFYVE [2] (Table 3) fell in the range of 10 to 100 nM.
